Drawing on patent US11136311B2, “Heteroaromatic derivatives as NIK inhibitors” (Janssen Pharmaceutica NV, priority 2016, dated 2021), this text covers IC50 for 27 molecules.

One test relates to KMS12-BM cells. Put plainly: Antiproliferative activity on KMS12-BM (NIK WT) multiple myeloma cells (CellTiter-Glo). The format is cell-based, human. Particulars: read-out: KMS-12 Proliferation inhibition (IC50 (nM)). An outline of the steps: (§1)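 Suspension myeloma cells in RPMI 1640 with 10% FCS, plated at 15000 (JJN-3) or 20000 (KMS12-BM) cells/well, were treated 96 hr with 9-point 1:3 compound dilutions at 0.3% DMSO. CellTiter-Glo luminescence, minus a time-zero blank, was expressed as % of untreated control growth.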

For another test, the system named is JJN-3 cells. Put plainly: Antiproliferative activity on JJN-3 (NIK translocated) multiple myeloma cells (CellTiter-Glo). It counts as cell-based, human. The conditions noted are these: read-out: JJN-3 Proliferation inhibition (IC50 (nM)). An outline of the steps: as §1
Test [1] deals with recombinant human NF-kappaB-inducing kinase (NIK/MAP3K14) (Homo sapiens (Human), UniProt Q99558). Put plainly: Inhibition of auto-phosphorylation of recombinant human NIK/MAP3K14 activity (AlphaScreen). The format is biochemical. The conditions noted are these: averaged values over all measurements on all batches. An outline of the steps:
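GST-tagged NIK at 0.2 nM autophosphorylated for 1 h at 25° C with 25 microM ATP in Tris pH 7.5, MgCl2, 1% DMSO. Phospho-IKK Ser176/180 antibody with AlphaScreen beads detected product. IC50 came from sigmoidal fits of blank-corrected % inhibition.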
(Bead proximity is the source of the signal in Alpha formats.)

The subject of test [2] is P-IKKα levels in L363 cells. Put plainly: Effect of compounds on P-IKKα levels in L363 (NIK translocated multiple myeloma) cells. The format is cell-based, human. The protocol:
Effect of compounds on P-IKKα levels in L363 (NIK translocated multiple myeloma) cells
All compounds tested were dissolved in DMSO and further dilutions were made in culture medium. Final DMSO concentration was 1% (v/v) in cell assays. The human L363 cells (ATCC) were cultured in RPMI 1640 medium supplemented with GlutaMax and 10% fetal calf serum (PAA). Cells were routinely maintained at densities of 0.2×10^6 cells per ml-1×10^6 cells per ml at 37° C. in a humidified 5% CO2 atmosphere. Cells were passaged twice a week splitting back to obtain the low density. Cells were seeded in 96 well plates (Nunc 167008) at 2×10^6 per ml media in a volume of 75 μl per well plus 25 μl 1 μg/ml recombinant human B-cell activating factor (BAFF/BLyS/TNFSF13B). Seeded cells were incubated at 37° C. in a humidified 5% CO2 atmosphere for 24 hr. Drugs and/or solvents were added (20 μl) to a final volume of 120 μl. Following 2 hr treatment plates were removed from the incubator and cell lysis was achieved by the addition of 30 μl 5× lysis buffer followed by shaking on a plate shaker at 4° C. for 10 min. At the end of this incubation lysed cells were centrifuged at 800×g for 20 min at 4° C. and the lysate was assessed for P-IKKα levels by sandwich immuno-assay carried out in anti-rabbit antibody coated Mesoscale plates. Within an experiment, the results for each treatment were the mean of 2 replicate wells. For initial screening purposes, compounds were tested using an 8 point dilution curve (serial 1:3 dilutions). For each experiment, controls (containing MG132 and BAFF but no test drug) and a blank incubation (containing MG132 and BAFF and 10 μM ADS125117, a test concentration known to give full inhibition) were run in parallel. The blank incubation value was subtracted from all control and sample values. To determine the IC50 a sigmoidal curve was fitted to the plot of % inhibition of control P-IKKα levels versus Log10 compound concentration.

The mark [3] stands for this setting: Homo sapiens, KMS-12-BM, 96 h, KMS12-BM (NIK WT) cells, 96 hr, averaged values.
Where [4] appears, read: Homo sapiens, JJN-3, 96 h, JJN-3 (NIK translocated) cells, 96 hr, averaged values.
[5] abbreviates: Homo sapiens, L-363, L363 cells, averaged values, read-out: Inhibition of pIKKα_L-363 (IC50 (nM)).

Like-named read-outs stand apart in the source and are kept apart here.

Sequence of recombinant human NF-kappaB-inducing kinase (NIK/MAP3K14) (Q99558 whole entry): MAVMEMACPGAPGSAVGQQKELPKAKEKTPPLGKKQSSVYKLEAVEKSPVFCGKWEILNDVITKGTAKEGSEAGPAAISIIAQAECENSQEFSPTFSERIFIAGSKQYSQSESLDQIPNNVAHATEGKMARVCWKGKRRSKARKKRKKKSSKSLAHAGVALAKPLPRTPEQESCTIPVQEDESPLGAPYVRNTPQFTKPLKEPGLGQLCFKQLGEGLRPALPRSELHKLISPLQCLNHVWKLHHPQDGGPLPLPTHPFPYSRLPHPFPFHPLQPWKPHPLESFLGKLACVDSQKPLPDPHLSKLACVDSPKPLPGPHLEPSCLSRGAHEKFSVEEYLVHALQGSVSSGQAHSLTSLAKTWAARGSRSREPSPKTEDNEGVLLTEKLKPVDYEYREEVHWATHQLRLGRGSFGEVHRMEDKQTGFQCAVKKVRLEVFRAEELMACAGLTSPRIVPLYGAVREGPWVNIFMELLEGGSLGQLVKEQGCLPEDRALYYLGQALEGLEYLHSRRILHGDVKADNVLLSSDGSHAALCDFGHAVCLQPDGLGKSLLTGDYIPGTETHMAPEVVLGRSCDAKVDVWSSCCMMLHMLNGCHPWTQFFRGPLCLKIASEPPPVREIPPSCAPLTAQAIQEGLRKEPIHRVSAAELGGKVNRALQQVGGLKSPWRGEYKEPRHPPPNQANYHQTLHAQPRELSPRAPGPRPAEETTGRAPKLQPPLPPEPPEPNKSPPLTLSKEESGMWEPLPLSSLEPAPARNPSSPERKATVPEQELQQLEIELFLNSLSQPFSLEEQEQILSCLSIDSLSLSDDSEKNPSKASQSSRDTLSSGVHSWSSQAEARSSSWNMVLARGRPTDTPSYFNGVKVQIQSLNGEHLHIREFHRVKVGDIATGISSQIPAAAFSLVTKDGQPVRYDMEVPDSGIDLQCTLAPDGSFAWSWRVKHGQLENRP

Regarding `Cc1c(Nc2nccc(-c3cc(C#N)c4c(c3)[C@@](C)(CO)CN4)n2)cnn1CC1CCOCC1` [Compound 76], the IC50 stood at 741 nM in the test on KMS12-BM cells (setting [3]), 141 nM in the test on JJN-3 cells (setting [4]), 1.2 nM in test [1] and 2 nM in test [2] (setting [5]).
In the same order, the values of `C[C@]1(CO)CNc2c(C#N)cc(-c3ccnc(Nc4cc(Cl)nn4C[C@@H]4CCOC4)n3)cc21` [Compound 129] are 2040 nM, 251 nM, 3.8 nM and 28 nM.
In the same order, the values of `CNC(=O)c1cc(Nc2nccc(-c3cc(C#N)c4c(c3)[C@@](C)(CO)CN4)n2)nn1CC(F)F` [Compound 197] are roughly 2240 nM, 204 nM, 2.1 nM and 4 nM.
As to `Cc1cc(Nc2nccc(-c3cc(C#N)c4c(c3)[C@@](C)(CO)CN4)n2)n(CC(F)F)n1` [Compound 186], the IC50 was found to be 617 nM in the test with KMS12-BM cells (setting [3]), 151 nM in the test with JJN-3 cells (setting [4]), 6.5 nM in test [1] and 3 nM in test [2] (setting [5]).
As for `COCCn1nc(C)cc1Nc1nccc(-c2cc(C#N)c3c(c2)[C@@](C)(CO)CN3)n1` [Compound 42], the IC50 stood at 5980 nM with KMS12-BM cells (setting [3]), 398 nM in the test on JJN-3 cells (setting [4]), 4.2 nM in test [1] and 68 nM in test [2] (setting [5]).
In the same order, the values of `CC(C)Cc1c(Nc2nccc(-c3cc(C#N)c4c(c3)[C@@](C)(CO)CN4)n2)cnn1C` [Compound 98] are greater than 10000 nM, 1020 nM, 2 nM and 5 nM.
Turning to `Cc1cc(Nc2nccc(-c3cc(C#N)c4c(c3)[C@@](C)(CO)CN4)n2)n(CC2CCN(C)CC2)n1` [Compound 83], the IC50 in the test with KMS12-BM cells (setting [3]) was 148 nM; in the test with JJN-3 cells (setting [4]) it was 111 nM; in test [1] it was 10 nM; in test [2] (setting [5]), 514 nM.
In the same order, the values of `CN(C(=O)Cn1nc(Cl)cc1Nc1nccc(-c2cc(C#N)c3c(c2)[C@@](C)(CO)CN3)n1)C1CC1` [Compound 118] are greater than 10000 nM, 447 nM, 4 nM and 33 nM.
In the same order, the values of `Cc1cc(Nc2nccc(-c3cc(C#N)c4c(c3)[C@@](C)(CO)CN4)n2)n(CC(=O)N(C)C2CC2)n1` [Compound 89] are greater than 10000 nM, 427 nM, 3.7 nM and roughly 85 nM.
In the same order, the values of `C[C@]1(CO)CNc2c(C#N)cc(-c3ccnc(Nc4cn(CC(F)F)nc4OC4CC4)n3)cc21` [Compound 218] are roughly 7430 nM, 38 nM, 2.8 nM and 7 nM.
For the molecule `C[C@]1(CO)CNc2c(C#N)cc(-c3ccnc(Nc4cnn(CCN5CC6COCC6C5)c4N4CCOCC4)n3)cc21` (stereo partly drawn) [Compound 200], the IC50 in the test with KMS12-BM cells (Homo sapiens, KMS-12-BM, 96 h) was greater than 10000 nM; with JJN-3 cells (Homo sapiens, JJN-3, 96 h) it was 3550 nM; in test [1], 5.9 nM; in test [2] (Homo sapiens, L-363, read-out: Inhibition of pIKKα_L-363 (IC50 (nM))) it was 20 nM.
Turning to `Cc1cc(Nc2nccc(-c3cc(C#N)c4c(c3)[C@@](C)(CO)CN4)n2)n(CC(=O)O)n1` [Compound 135], the IC50 in the test with KMS12-BM cells (setting [3]) is greater than 10000 nM; in the test on JJN-3 cells (setting [4]) it was greater than 10000 nM; in test [1] it was 5.1 nM; in test [2] (setting [5]), 229 nM.
Regarding `Cc1cc(Nc2nccc(-c3cc(C#N)c4c(c3)[C@@](C)(CO)CN4)n2)n(CC(=O)N2CC(F)(F)C2)n1` [Compound 87], the IC50 was greater than 10000 nM in the test on KMS12-BM cells (setting [3]), 3240 nM in the test on JJN-3 cells (setting [4]), roughly 6.5 nM in test [1] and 34 nM in test [2] (setting [5]).
In the same order, the values of `CC(C)Oc1c(Nc2nccc(-c3cc(C#N)c4c(c3)[C@@](C)(CO)CN4)n2)cnn1C` [Compound 194] are greater than 10000 nM, 407 nM, 3.1 nM and 29 nM.
For the molecule `C[C@]1(CO)CNc2c(C#N)cc(-c3ccnc(Nc4cc(C#N)nn4CCC4CC4)n3)cc21` [Compound 128], the IC50 with KMS12-BM cells (setting [3]) is 1900 nM; with JJN-3 cells (setting [4]), 417 nM; in test [1], 3.7 nM; in test [2] (setting [5]), roughly 41 nM.
In the same order, the values of `CC(C)CCc1c(Nc2nccc(-c3cc(C#N)c4c(c3)[C@@](C)(CO)CN4)n2)cnn1CC1CCN(CC(F)F)CC1` [Compound 169] are roughly 7080 nM, 389 nM, 3.9 nM and 16 nM.
In the same order, the values of `COCCN1CCC(Cn2nc(Cl)cc2Nc2nccc(-c3cc(C#N)c4c(c3)[C@@](C)(CO)CN4)n2)CC1` [Compound 138] are 2570 nM, 44 nM, 8.3 nM and 178 nM.
In the same order, the values of `COCCc1c(Nc2nccc(-c3cc(C#N)c4c(c3)[C@@](C)(CO)CN4)n2)cnn1CC(F)F` [Compound 181] are roughly 9120 nM, 87 nM, 3.3 nM and 11 nM.
For the molecule `Cc1cc(Nc2nccc(-c3cc(C#N)c4c(c3)[C@@](C)(CO)CN4)n2)n(CCC(C)(C)O)n1` [Compound 108], the IC50 in the test with KMS12-BM cells (setting [3]) is roughly 3160 nM; in the test with JJN-3 cells (setting [4]), roughly 724 nM; in test [1], 4.1 nM; in test [2] (setting [5]), 14 nM.
For the molecule `CNC(=O)c1nn(CC(F)F)cc1Nc1nccc(-c2cc(C#N)c3c(c2)[C@@](C)(CO)CN3)n1` [Compound 187], the IC50 was greater than 10000 nM with KMS12-BM cells (setting [3]), roughly 1380 nM in the test on JJN-3 cells (setting [4]), 7.2 nM in test [1] and 11 nM in test [2] (setting [5]).
For `CNC(=O)c1cc(Nc2nccc(-c3cc(C#N)c4c(c3)[C@@](C)(CO)CN4)n2)n(CCC2CC2)n1` [Compound 198], the IC50 with KMS12-BM cells (setting [3]) was greater than 10000 nM; in the test on JJN-3 cells (setting [4]), 112 nM; in test [1], 6.8 nM; in test [2] (setting [5]), 20 nM.
Take `C[C@@]1(CO)CNc2c(C#N)cc(-c3ccnc(Nc4cnn(CCC5CC5)c4CN4CCOCC4)n3)cc21` [Compound 159]: the IC50 in the test on KMS12-BM cells (KMS12-BM (NIK WT) cells, 96 hr, averaged values) is greater than 10000 nM; in the test with JJN-3 cells (JJN-3 (NIK translocated) cells, 96 hr, averaged values), 1510 nM; in test [1] it was 10 nM; in test [2] (L363 cells, averaged values, read-out: Inhibition of pIKKα_L-363 (IC50 (nM))), 91 nM.
For the molecule `CC(C)CCc1c(Nc2nccc(-c3cc(C#N)c4c(c3)[C@@](C)(CO)CN4)n2)cnn1CCO` [Compound 127], the IC50 is greater than 10000 nM in the test on KMS12-BM cells (setting [3]), 617 nM with JJN-3 cells (setting [4]), 2 nM in test [1] and 25 nM in test [2] (setting [5]).
In the same order, the values of `Cc1cc(Nc2nccc(-c3cc(C#N)c4c(c3)[C@@](C)(CO)CN4)n2)n(CCCO)n1` [Compound 92] are 1510 nM, roughly 224 nM, 3.5 nM and 7 nM.
In the same order, the values of `Cc1c(Nc2nccc(-c3cc(C#N)c4c(c3)[C@@](C)(CO)CN4)n2)cnn1C1CCOCC1` [Compound 72] are 724 nM, 102 nM, 2.9 nM and 3 nM.
In the case of `CCn1ncc(Nc2nccc(-c3cc(C#N)c4c(c3)[C@@](C)(CO)CN4)n2)c1N1CCOCC1` [Compound 199], the IC50 in the test with KMS12-BM cells (setting [3]) was greater than 10000 nM; in the test with JJN-3 cells (setting [4]), 1900 nM; in test [1], 3.5 nM; in test [2] (setting [5]), 25 nM.
In the same order, the values of `CC(C)n1nc(C2CCOCC2)cc1Nc1cc(-c2cc(C#N)c3c(c2)[C@@](C)(CO)CN3)ncn1` [Compound 91] are greater than 10000 nM, 324 nM, 5.5 nM and 13 nM.
